Measured values from PubChem BioAssay (NCI).
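Briefly, cells in 96-well plates were exposed to five compound concentrations for 48 h, and endpoints were estimated by linear interpolation. The concentration for full growth arrest is given as TGI.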

What was measured:
Experiment in all cases: NCI-60 cell line screen, 48 h
LOX IMVI melanoma = test system: LOX IMVI melanoma
OVCAR-8 ovarian = test system: OVCAR-8 ovarian
DU-145 prostate = test system: DU-145 prostate
SK-MEL-28 melanoma = test system: SK-MEL-28 melanoma
786-0 renal = test system: 786-0 renal
HCT-15 colon = test system: HCT-15 colon
K-562 leukemia = test system: K-562 leukemia
KM12 colon = test system: KM12 colon
SK-OV-3 ovarian = test system: SK-OV-3 ovarian
HL-60(TB) leukemia = test system: HL-60(TB) leukemia
HOP-92 NSCLC = test system: HOP-92 NSCLC
IGROV1 ovarian = test system: IGROV1 ovarian
RXF 393 renal = test system: RXF 393 renal
ACHN renal = test system: ACHN renal
M14 melanoma = test system: M14 melanoma
HOP-62 NSCLC = test system: HOP-62 NSCLC
OVCAR-5 ovarian = test system: OVCAR-5 ovarian
RPMI-8226 leukemia = test system: RPMI-8226 leukemia
NCI/ADR-RES ovarian = test system: NCI/ADR-RES ovarian
SW-620 colon = test system: SW-620 colon
CCRF-CEM leukemia = test system: CCRF-CEM leukemia
HCC-2998 colon = test system: HCC-2998 colon
MOLT-4 leukemia = test system: MOLT-4 leukemia
SR leukemia = test system: SR leukemia
NCI-H226 lung = test system: NCI-H226 lung
TK-10 renal = test system: TK-10 renal
MDA-MB-231 breast = test system: MDA-MB-231 breast
T-47D breast = test system: T-47D breast
SF-295 CNS = test system: SF-295 CNS
UO-31 renal = test system: UO-31 renal
NCI-H522 lung = test system: NCI-H522 lung
A498 renal = test system: A498 renal
NCI-H23 lung = test system: NCI-H23 lung
EKVX NSCLC = test system: EKVX NSCLC
A549 NSCLC = test system: A549 NSCLC
SF-268 CNS = test system: SF-268 CNS
OVCAR-4 ovarian = test system: OVCAR-4 ovarian
HCT-116 colon = test system: HCT-116 colon
NCI-H460 lung = test system: NCI-H460 lung
SNB-19 CNS = test system: SNB-19 CNS
PC-3 prostate = test system: PC-3 prostate
MDA-N = test system: MDA-N
MCF7 breast = test system: MCF7 breast
OVCAR-3 ovarian = test system: OVCAR-3 ovarian
MALME-3M melanoma = test system: MALME-3M melanoma
COLO 205 colon = test system: COLO 205 colon
UACC-257 melanoma = test system: UACC-257 melanoma
SN12C renal = test system: SN12C renal
HT29 colon = test system: HT29 colon
UACC-62 melanoma = test system: UACC-62 melanoma
BT-549 breast = test system: BT-549 breast
MDA-MB-435 = test system: MDA-MB-435
U251 CNS = test system: U251 CNS
SF-539 CNS = test system: SF-539 CNS
SK-MEL-5 melanoma = test system: SK-MEL-5 melanoma
CAKI-1 renal = test system: CAKI-1 renal
HS 578T breast = test system: HS 578T breast
SNB-75 CNS = test system: SNB-75 CNS

Measured: TGI

NC(=S)N/N=C1\CCc2ccccc2C1
> 100 µM: LOX IMVI melanoma | OVCAR-8 ovarian | DU-145 prostate | SK-MEL-28 melanoma | 786-0 renal | HCT-15 colon | K-562 leukemia | KM12 colon | SK-OV-3 ovarian | HL-60(TB) leukemia | HOP-92 NSCLC | IGROV1 ovarian | RXF 393 renal | ACHN renal | M14 melanoma | HOP-62 NSCLC | OVCAR-5 ovarian | RPMI-8226 leukemia | NCI/ADR-RES ovarian | SW-620 colon | CCRF-CEM leukemia | HCC-2998 colon | MOLT-4 leukemia | SR leukemia | NCI-H226 lung | TK-10 renal | MDA-MB-231 breast | T-47D breast | SF-295 CNS | UO-31 renal | NCI-H522 lung | A498 renal | NCI-H23 lung | EKVX NSCLC | A549 NSCLC | SF-268 CNS | OVCAR-4 ovarian | HCT-116 colon | NCI-H460 lung | SNB-19 CNS | PC-3 prostate | MDA-N | MCF7 breast | OVCAR-3 ovarian | MALME-3M melanoma | COLO 205 colon | UACC-257 melanoma | SN12C renal | HT29 colon | UACC-62 melanoma | BT-549 breast | MDA-MB-435 | U251 CNS | SF-539 CNS

O=C1CSc2ccnc(=O)n21
> 100 µM: OVCAR-8 ovarian | DU-145 prostate | SK-MEL-28 melanoma | 786-0 renal | SK-MEL-5 melanoma | SK-OV-3 ovarian | HL-60(TB) leukemia | HOP-92 NSCLC | IGROV1 ovarian | RXF 393 renal | ACHN renal | CAKI-1 renal | M14 melanoma | HOP-62 NSCLC | OVCAR-5 ovarian | RPMI-8226 leukemia | SW-620 colon | CCRF-CEM leukemia | HCC-2998 colon | MOLT-4 leukemia | SR leukemia | TK-10 renal | UO-31 renal | NCI-H522 lung | A498 renal | NCI-H23 lung | EKVX NSCLC | A549 NSCLC | SF-268 CNS | OVCAR-4 ovarian | HCT-116 colon | NCI-H460 lung | SNB-19 CNS | PC-3 prostate | HS 578T breast | MDA-N | MCF7 breast | MALME-3M melanoma | COLO 205 colon | UACC-257 melanoma | SNB-75 CNS | SN12C renal | UACC-62 melanoma | BT-549 breast | MDA-MB-435 | U251 CNS | SF-539 CNS
